Test system: mixture of bacteria, yeasts and fungi/moulds (inoculum)
Test: Challenge test of preserved polymer dispersions with mixed inoculum (repeated up to six cycles)
Format: cell-based
Details: at concentrations of <15 ppm in products such as aqueous coating compositions
Description: 100 g of the dispersions listed above are weighed into sterile sample bottles. To each sample 1% by weight of an inoculum is added and incubated at 30° C. for 7 days. As inoculum, a suspension in water which contains the following concentrations is used: Bacteria: 8.0×10^8−2.0×10^9 cfu/cm^3 Yeasts/moulds: 8.0×10^6−2.0×10^7 cfu/cm^3 A mixture of the following bacteria, yeasts and fungi/moulds are used for the preparation of the inoculum: Bacteria mixture of: Aeromonas hydrophila (sorbia, BAM 485) Alcaligenes faecalis (BAM 486) Providencia rettgeri (BAM 488) Pseudomonas aeruginosa (BAM 489) Pseudomonas sp (BAM 490) Escherichia coli (DSM 13631) Staphylococcus aureus (DSM 346) Micrococcus Luteus (DSM 20030) Yeast mixture of: Rhodotorula rubra (DSM 13621) Saccharomyces cerevisiae (DSM 13622) Issatchenkia orientalis (DSM 6128) Filamentous Fungy mixture of: Aspergillus terréus (DSM 13630) Geotrichum candidum (DSM 13629) Fusarium Solani (DSM 13635) After 7 days the microbial contamination remaining in the samples is determined by streaking the samples out onto Trypticase Sel Agar (TSA) and on Malt Extra Agar (MEA) as nutrient media and incubated at 30° C. for 7 days. The level of growing is measured by using a rating of 0 for no growth up to a rating of 3 for full growth. The test is passed in case no growth is observed which means a rating of 0 on TSA and MEA nutrient media. […]

Compound: Cn1sc(Cl)cc1=O [CIT, 5-chloro-2-methyl-4-isothiazolin-3-one]
- protection against microbial attack: not sufficient

Source: patent US20210388213A1, “PROCESS FOR PRODUCING AQUEOUS COATING COMPOSITIONS” (CELANESE INTERNATIONAL CORPORATION, priority 2018, published 2021)
